Calls of active or inactive are those of the source. Rule as the data show it, for most assays here: actives have a measured EC50 and inactives only a lower limit.
Assays:
[1] = target: T1, Heat shock factor protein 1 (Mus musculus, UniProt P38532); test: HSF1 potentiators in luciferase reporter cells, confirmation, cell-based, NIH3T3, luminescence, dose retest (AID 435004); assay type: functional;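 also: stress induced by proteasome inhibitor MG132 added 30 min after compound; luciferase reporter driven by HSF1 response element in NIH3T3 cells; actives raise luminescence as potentiators of the MG132 stress response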
T1 sequence (P38532 whole entry): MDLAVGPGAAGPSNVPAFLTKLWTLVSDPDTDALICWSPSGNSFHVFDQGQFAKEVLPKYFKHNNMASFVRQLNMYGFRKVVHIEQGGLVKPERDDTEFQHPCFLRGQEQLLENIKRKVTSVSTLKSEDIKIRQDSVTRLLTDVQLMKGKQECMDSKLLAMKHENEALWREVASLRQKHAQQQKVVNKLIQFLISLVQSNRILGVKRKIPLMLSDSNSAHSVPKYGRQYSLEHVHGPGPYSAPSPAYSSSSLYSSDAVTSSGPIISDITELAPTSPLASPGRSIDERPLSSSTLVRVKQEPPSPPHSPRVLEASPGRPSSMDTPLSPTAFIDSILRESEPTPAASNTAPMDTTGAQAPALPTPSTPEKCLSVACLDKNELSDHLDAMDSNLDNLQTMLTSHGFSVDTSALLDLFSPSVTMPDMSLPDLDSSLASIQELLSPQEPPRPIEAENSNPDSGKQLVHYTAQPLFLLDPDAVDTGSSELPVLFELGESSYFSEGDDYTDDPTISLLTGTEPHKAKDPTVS

INS1 = test: beta cell apoptosis inhibitors, cytokine rescue, dose response, luminescence, retest (AID 449756); assay type: functional, cell-based; details: Rattus norvegicus;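 also: cell death triggered by IL-1 beta plus TNF-alpha plus IFN-gamma mixture; protective hits raise ATP signal compared with cytokine alone wells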
[2] = target: T2, Corticotropin-releasing factor receptor 2/Corticotropin-releasing factor-binding protein (Homo sapiens, UniProt P24387+Q13324); test: activators of CRF receptor 2 with binding protein – uHTS hits, confirmation (AID 602473); assay type: functional; details: read-out: EC50_Mean
T2 sequence (Q13324 whole entry): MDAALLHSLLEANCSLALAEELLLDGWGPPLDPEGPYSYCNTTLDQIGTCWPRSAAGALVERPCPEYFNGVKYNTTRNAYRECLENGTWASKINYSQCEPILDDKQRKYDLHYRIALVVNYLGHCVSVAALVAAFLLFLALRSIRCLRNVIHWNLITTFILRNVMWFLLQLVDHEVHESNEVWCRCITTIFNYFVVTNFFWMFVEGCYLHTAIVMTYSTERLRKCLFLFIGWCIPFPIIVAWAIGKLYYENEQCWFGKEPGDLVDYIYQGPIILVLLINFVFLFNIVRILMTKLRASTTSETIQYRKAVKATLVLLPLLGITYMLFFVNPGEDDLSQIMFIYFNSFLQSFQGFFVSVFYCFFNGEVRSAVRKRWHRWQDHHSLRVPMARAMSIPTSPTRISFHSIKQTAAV
T2 sequence (P24387 whole entry): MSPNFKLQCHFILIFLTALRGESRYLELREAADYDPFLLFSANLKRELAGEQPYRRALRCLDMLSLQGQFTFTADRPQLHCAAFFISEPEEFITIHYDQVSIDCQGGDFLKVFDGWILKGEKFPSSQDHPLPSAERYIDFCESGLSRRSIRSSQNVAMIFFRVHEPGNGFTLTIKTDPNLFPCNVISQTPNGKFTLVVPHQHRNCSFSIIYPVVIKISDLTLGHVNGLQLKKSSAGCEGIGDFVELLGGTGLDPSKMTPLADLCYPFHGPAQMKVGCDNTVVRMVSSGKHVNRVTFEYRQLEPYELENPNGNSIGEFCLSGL

[3] = target: T3, RNA-binding protein pos-1 (Caenorhabditis elegans, UniProt G5EF15); test: inhibitors of POS-1/mex-3 RNA binding, dose response, biochemical, fluorescence polarization (AID 1964);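 also: purified POS-1 fused to maltose binding protein made in E. coli; potency of compounds blocking POS-1 binding to fluorescent RNA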
T3 sequence (G5EF15 whole entry): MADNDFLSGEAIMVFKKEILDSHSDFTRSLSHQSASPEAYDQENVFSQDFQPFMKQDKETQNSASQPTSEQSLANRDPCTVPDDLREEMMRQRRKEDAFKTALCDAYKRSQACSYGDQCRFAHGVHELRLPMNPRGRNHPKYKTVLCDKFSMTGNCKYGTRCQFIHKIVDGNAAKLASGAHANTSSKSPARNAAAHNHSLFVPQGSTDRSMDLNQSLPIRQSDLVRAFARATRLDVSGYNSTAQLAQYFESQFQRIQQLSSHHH

[4] = target: T4, Zinc finger protein mex-5 (Caenorhabditis elegans, UniProt Q9XUB2); test: MEX-5/TCR-2 RNA interaction inhibitors, dose response, biochemical, C. elegans, fluorescence polarization (AID 1960)
T4 sequence (Q9XUB2 whole entry): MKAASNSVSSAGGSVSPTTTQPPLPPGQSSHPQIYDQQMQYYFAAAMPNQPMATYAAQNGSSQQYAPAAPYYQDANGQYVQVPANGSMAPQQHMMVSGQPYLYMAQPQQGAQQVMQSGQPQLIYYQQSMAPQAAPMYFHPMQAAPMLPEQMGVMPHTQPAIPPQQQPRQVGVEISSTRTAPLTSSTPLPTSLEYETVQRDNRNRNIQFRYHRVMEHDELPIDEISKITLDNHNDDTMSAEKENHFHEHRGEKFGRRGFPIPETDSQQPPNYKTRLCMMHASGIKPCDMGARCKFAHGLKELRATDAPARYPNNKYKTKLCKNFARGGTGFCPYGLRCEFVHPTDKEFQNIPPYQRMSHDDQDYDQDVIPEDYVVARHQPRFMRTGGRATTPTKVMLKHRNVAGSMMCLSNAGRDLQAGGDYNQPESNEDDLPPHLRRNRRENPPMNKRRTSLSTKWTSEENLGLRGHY

[5] = Luminescence Cell-Based Dose Retest to Confirm Inhibitors of Cancer Stem Cells. [Related pubchem assays (depositor defined):AID2717, AID2721]; assay type: functional; details: Homo sapiens
H4 = test: Luminescence Cell-Based Dose Response HTS to Identify Activators of 5'UTR Stem-Loop Driven Prion Protein mRNA Translation in H4 Neuroglioblastoma Cells. [Related pubchem assays: 1829 (Project Summary), 1814 (Primary HTS)]; assay type: functional; details: Homo sapiens
[6] = Luminescence Cell-Based Dose Response HTS to Identify Activators of Luciferase Translation or Activity in H4 […] Cells. [Related pubchem assays: 1829 (Project Summary), 1814 (Primary HTS)]; assay type: functional
[7] = Luminescence Cell-Based Dose Confirmation HTS to Identify Activators of 5'UTR Stem-Loop Driven Alpha-Synuclein mRNA Translation in H4 Neuroglioblastoma Cells. [Related pubchem assays: 1829 (Project Summary), 1814 (Primary HTS)]; assay type: functional
[8] = cytotoxicity toward NIH3T3 fibroblasts, dose response, counter-screen, cell-based, ATP luminescence, mouse fibroblasts (AID 2010); assay type: functional;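 also: cells exposed to compound for about 90 hours before reading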
[9] = inhibitors of intracellular T. cruzi replication, confirmation, NIH3T3 host cells, beta-gal luminescence (AID 2044); assay type: functional, cell-based;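 also: intracellular parasites grown in NIH/3T3 mouse fibroblasts as host cells; luminescent beta-galactosidase reporter signal from transgenic T. cruzi replicating inside host cells; inhibitors lower the luminescence signal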
Streptococcus = test: Group A Streptococcus viability loss, dose response, counter-screen for streptokinase expression inhibitor project, luminescence, BacTiterGlo (AID 1915); assay type: functional, organism-based;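 also: potency for reduction of bacterial viability or growth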
Streptokinase A = target: T5, Streptokinase A (Streptococcus pyogenes serotype M1, UniProt P10520); test: S. pyogenes streptokinase expression inhibitors, potency, dose response, plasminogen activation absorbance, OD405 (AID 1914); assay type: functional, Streptococcus pyogenes M1 GAS;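 also: secreted streptokinase activity via plasminogen activation per viability signal from cell pellet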
T5 sequence (P10520 whole entry): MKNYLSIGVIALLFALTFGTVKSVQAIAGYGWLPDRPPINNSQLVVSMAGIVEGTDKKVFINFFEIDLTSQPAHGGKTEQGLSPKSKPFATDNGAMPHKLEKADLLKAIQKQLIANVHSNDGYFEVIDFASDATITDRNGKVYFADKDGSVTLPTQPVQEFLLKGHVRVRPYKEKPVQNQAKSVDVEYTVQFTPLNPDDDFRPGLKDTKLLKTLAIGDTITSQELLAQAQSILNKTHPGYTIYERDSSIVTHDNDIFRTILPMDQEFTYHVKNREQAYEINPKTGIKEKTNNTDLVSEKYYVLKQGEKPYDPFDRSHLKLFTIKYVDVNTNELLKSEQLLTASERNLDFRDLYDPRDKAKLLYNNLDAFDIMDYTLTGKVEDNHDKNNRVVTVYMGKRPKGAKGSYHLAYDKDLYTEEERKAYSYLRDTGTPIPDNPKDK

[10] = tested on: Streptococcus sp. 'group A'; test: growth inhibition of control SK(-) GAS strain, dose response, counter-screen for streptokinase expression inhibitor project, luminescence, kanamycin, BacTiterGlo, confirmation (AID 1900); assay type: functional, organism-based

## c1ccc(-c2nc(CSc3n[nH]c(-c4cccs4)n3)cs2)cc1
[1]
  EC50: > 260 µM (inactive)

## CN1/C(=C\C(=S)NC(=O)c2ccc([N+](=O)[O-])cc2)C(C)(C)c2ccccc21
INS1
  AC50: 22.2 µM (active)

## N#Cc1c(-c2ccccc2)cc(-c2ccccc2)nc1SCC(=O)NCC(=O)O
[2]
  EC50: 12.2 µM (active)

## CC1(C)CC(=O)/C(=C\c2cccc([N+](=O)[O-])c2)C(C)(C)N1
[1]
  EC50: 18.6 µM (active)

## CCCn1cc2c3c(cccc31)C1CC(C)CN(C)C1C2 (stereo unspecified)
[3]
  EC50: 36 µM (active)
[4]
  EC50: 29.6 µM (active)

## Cc1ccc(N=C2NC(=O)CS2)cc1
[1]
  EC50: > 260 µM (inactive)

## CCc1cccc(NS(=O)(=O)c2ccc3c(c2)NC(=O)C(C)S3)c1 (stereo unspecified)
[1]
  EC50: > 260 µM (inactive)

## O=C(Nc1cccc(Cl)c1)Nc1sccc1-c1nc2ccccc2s1
[5]
  AC50: 39 µM (active)

## COc1cc(-c2nnc(CSc3nnc(Nc4ccc(C(C)C)cc4)s3)o2)cc(OC)c1OC
[1]
  EC50: 31.8 µM (active)

## Cc1cccc(OCCOC(=O)c2c(-c3ccccc3)noc2C)c1
H4
  EC50: > 120 µM (not active)
[6]
  EC50: 62 µM (active)
[7]
  EC50: > 120 µM (not active)

## Cc1cc(C)c2c3c(sc2n1)C1(CCSCC1)C(C#N)=C(N)O3
H4
  EC50: 14.7 µM (active)
[6]
  EC50: 14.5 µM (inconclusive)
[8]
  EC50: > 30 µM (not active)
[7]
  EC50: 20.3 µM (active)
[9]
  EC50: 0.118 µM (active)

## O=C1NC2(CCCCC2)C(=O)N1/N=C/c1ccccc1Br
H4
  EC50: 16.1 µM (active)
[6]
  EC50: 24.6 µM (active)
[7]
  EC50: > 120 µM (not active)

## CC(C)C[C@H]1CN=C(Nc2ccccc2)N1CCc1ccc(F)cc1
INS1
  AC50: 64.4 µM (active)

## Cc1ccc(Sc2cc(C)nc(-c3ccccn3)n2)cc1
INS1
  AC50: 4 µM (active)
Streptococcus
  EC50: 49.4 µM (active)
Streptokinase A
  EC50: > 150 µM (not active)
[10]
  EC50: 21.1 µM (active)

## Oc1c2cnnc-2nc(SCc2ccccc2F)n1-c1ccc(Br)cc1
[5]
  AC50: 3.3 µM (active)

## O=C(C[n+]1cccc(C(=O)Nc2ccccc2)c1)c1ccc([N+](=O)[O-])cc1
[1]
  EC50: 64.6 µM (active)

## COC(=O)c1ccc(COc2ccccc2/C=N/NS(=O)(=O)c2ccc(C)cc2)cc1
H4
  EC50: > 120 µM (not active)
[6]
  EC50: > 120 µM (not active)
[7]
  EC50: > 120 µM (not active)

## Cc1ccc(CSc2nc3sc(C)c(C)c3c(=O)n2Cc2ccco2)cc1
[5]
  AC50: 23.3 µM (active)
Streptococcus
  EC50: > 150 µM (not active)
Streptokinase A
  EC50: 99.5 µM (active)
[10]
  EC50: > 150 µM (not active)

## CCOc1cc(/C=C2\CCCc3c2nc2ccccc2c3C(=O)O)ccc1OC
[1]
  EC50: > 260 µM (inactive)

## C/C(=C\C(=O)Nc1cscc1C)C(=O)O
[1]
  EC50: > 260 µM (inactive)

## Cc1c(OCC(=O)NCCCn2ccnc2)ccc2c3c(c(=O)oc12)CCCC3
[1]
  EC50: > 260 µM (inactive)

## Cc1nc2ccccc2c(=O)n1/N=C1\C(=O)N(C)c2ccccc21
H4
  EC50: > 120 µM (not active)
[6]
  EC50: 12.6 µM (active)
[7]
  EC50: > 120 µM (not active)

## Cc1ccc(OCc2ccc(C#N)cc2)c(C(=O)c2cc(C#N)c(=O)n(C3CC3)c2)c1
[1]
  EC50: > 260 µM (inactive)

## COc1ccc(C)cc1Nc1n[n+](-c2ccccc2)c(-c2c(OC)ccc3ccccc23)s1
INS1
  AC50: 5.74 µM (active)
[5]
  AC50: 4.84 µM (active)

## CCOC(=O)Cc1nnc(Nc2cccc(C)c2)c2ccccc12
[1]
  EC50: > 260 µM (inactive)

## O=C(CCS(=O)(=O)c1cccs1)NC1CCCCCC1
H4
  EC50: 16 µM (active)
[6]
  EC50: 29.1 µM (active)
[7]
  EC50: 13.5 µM (active)

## CN(/N=C/c1cc(Cl)cc(Cl)c1O)C(=S)NC(C)(C)C
[5]
  AC50: 2.5 µM (active)

## CC1(C)CC(=O)C2=C(C1)c1c(ccc3ccccc13)NC2c1ccco1 (stereo unspecified)
H4
  EC50: > 120 µM (not active)
[6]
  EC50: 27.4 µM (active)
[7]
  EC50: 15.7 µM (active)

## Cc1cc(O)[nH]c2nnc(-c3ccccc3)c1-2
H4
  EC50: 15.1 µM (active)
[6]
  EC50: 10 µM (active)
[7]
  EC50: 8.88 µM (active)

## Cc1ccc(CNc2c(C=O)c(O)nc3ccccc23)cc1
[1]
  EC50: > 260 µM (inactive)

## CC(C)(C)NC(=O)C(c1ccncc1)N(C(=O)Cn1nnc(-c2cccs2)n1)C1CCCCC1 (stereo unspecified)
[1]
  EC50: > 260 µM (inactive)

## Cc1ccc(-c2csc(NC(=O)c3cccc([N+](=O)[O-])c3)n2)cc1
[1]
  EC50: > 260 µM (inactive)

## c1ccc(-c2sc3ccccc3c2-c2ccc(OCCN3CCOCC3)cc2)cc1
[5]
  AC50: 2.28 µM (active)

## CCOC(=O)c1cnc(-n2nc(C)cc2C)nc1Nc1ccc(N(C)C)cc1
INS1
  AC50: 4.04 µM (active)
[8]
  EC50: > 30 µM (not active)
[9]
  EC50: 1.12 µM (active)

## CCN1/C(=N/c2ccc(Cl)cc2)SC/C1=C\C(=O)OC
H4
  EC50: 23.7 µM (active)
[6]
  EC50: 26.6 µM (active)
[7]
  EC50: 17.1 µM (active)

## CCCCn1c(N)c(N(CC(C)C)C(=O)C2CCN(S(=O)(=O)c3ccc(C)c(C)c3)CC2)c(=O)[nH]c1=O
[1]
  EC50: > 260 µM (inactive)
